What was measured:
Assay in all cases: cell viability (% survival relative to DMSO control); higher = less cytotoxic
Details in all cases: 72 h
[1] = tested on: myeloid leukemia patient primary cells Pat.9
In short: (§1)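 Mononuclear cells from patients with AML or CML were thawed, purified on Ficoll and placed in RPMI 1640 with 10% FBS at 10,000 cells/well on 384-well plates. The plates came pre-printed with 70 compounds at five tenfold concentrations spanning 1–10,000 nM, in duplicate, and cells were exposed for 72 h. CellTiter-Glo gave viability, scaled between DMSO wells and wells with 10 μM proteasome inhibitor. Where reported, area under the curve was obtained from log-logistic fits with four parameters using the drc and PharmacoGx R packages.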

[2] = tested on: myeloid leukemia patient primary cells Pat.12
In short: as §1

[3] = tested on: myeloid leukemia patient primary cells Pat.14
In short: as §1

[4] = tested on: myeloid leukemia patient primary cells Pat.7
In short: as §1

Structure (SMILES)	cell viability ([1]; 1 nM) [%]	cell viability ([1]; 10 nM) [%]	cell viability ([1]; 100 nM) [%]	cell viability ([1]; 1000 nM) [%]	cell viability ([1]; 10000 nM) [%]	cell viability ([2]; 1 nM) [%]	cell viability ([2]; 10 nM) [%]	cell viability ([2]; 100 nM) [%]	cell viability ([2]; 1000 nM) [%]	cell viability ([2]; 10000 nM) [%]	cell viability ([3]; 1 nM) [%]	cell viability ([3]; 10 nM) [%]	cell viability ([3]; 100 nM) [%]	cell viability ([3]; 1000 nM) [%]	cell viability ([3]; 10000 nM) [%]	cell viability ([4]; 1 nM) [%]	cell viability ([4]; 10 nM) [%]	cell viability ([4]; 100 nM) [%]	cell viability ([4]; 1000 nM) [%]	cell viability ([4]; 10000 nM) [%]
Sc1ncnc2nc[nH]c12 [6-mercaptopurine]	62.5	68.1	48.8	79.9	30.1	> 100	95.9	93.6	97.3	> 100	92.6	> 100	74.8	97.9	88	> 100	78.2	66.1	93.3	88.8
Cc1noc2c1-c1ccccc1C(c1ccc(Cl)cc1)=N[C@H]2CC(N)=O [CPI-0610]	83	24.2	88.3	6.03	11.5	96.7	90.2	98.4	82.8	80.9	> 100	84.9	86.4	60.3	60.7	> 100	97.1	84.1	60.5	58
Nc1ccn([C@@H]2O[C@H](CO)[C@@H](O)[C@@H]2O)c(=O)n1 [Cytarabine]	89.7	18.1	51.2	15.5	2.09	96.3	94.1	> 100	97.1	67.7	85.1	65.1	78.1	62.9	15.8	> 100	50.7	59.9	12.8	4.95
CCN(CC)CCN(Cc1ccc(-c2ccc(C(F)(F)F)cc2)cc1)C(=O)Cn1c(SCc2ccc(F)cc2)nc(=O)c2c1CCC2 [Darapladib]	37.7	60.6	25.1	2.92	< 0	94.6	97.5	85.3	92.2	< 0	65.7	92.2	52.5	52.1	2.36	63.7	74.4	40.1	5.93	< 0
CC12CCC(O)CC1CCC1C2CCC2(C)C(C3=CC(=O)OC3)CCC12O (stereo not given) [Digitoxigenin]	79	54.7	13	5.35	4.43	97.4	96	94.2	58.7	16.8	95	66.5	78.4	22.2	18.3	94.8	91.8	67.9	> 100	> 100
C[C@H]1O[C@@H](O[C@H]2[C@@H](O)C[C@H](O[C@H]3[C@@H](O)C[C@H](O[C@H]4CC[C@@]5(C)[C@H](CC[C@@H]6[C@@H]5C[C@@H](O)[C@]5(C)[C@@H](C7=CC(=O)OC7)CC[C@]65O)C4)O[C@@H]3C)O[C@@H]2C)C[C@H](O)[C@@H]1O [Digoxin]	76	65.2	17.7	2.92	2.42	94.2	95	85.5	41.7	12.6	82.1	90.3	69.7	18.9	13.5	76.9	86.8	69	89	> 100
Clc1ccc(COC(Cn2ccnc2)c2ccc(Cl)cc2Cl)cc1 (stereo not given) [Econazole]	55.9	80.5	43.2	25.8	3.7	89.2	94.9	95.7	96.5	90.3	64.1	90.1	82.3	76.3	0.228	72.2	> 100	93	63.4	< 0
C[C@]12O[C@H](C[C@]1(O)CO)n1c3ccccc3c3c4c(c5c6ccccc6n2c5c31)CNC4=O [Lestaurtinib]	56.2	18.6	19.5	5.6	< 0	> 100	> 100	87	> 100	1.77	80.7	43.5	77.9	40.6	4.31	88.3	62.3	> 100	63.1	< 0
CC(Cc1ccc(O)c(O)c1)C(C)Cc1ccc(O)c(O)c1 (stereo not given) [Masoprocol]	75.1	87.1	97.4	9.61	83.4	91.2	96.6	98.3	89	35.1	> 100	85.7	96.7	55.8	68.1	> 100	85.3	89	31.9	2.01
COc1c(C)c2c(c(O)c1C/C=C(\C)CCC(=O)O)C(=O)OC2 [Mycophenolic acid]	28	63.2	52	50.4	75	> 100	> 100	85.9	> 100	80.5	75.3	83.7	65.6	95.5	93.4	52.5	94.8	56.3	> 100	99.3
CCOC(=O)N1c2ccc(C(F)(F)F)cc2[C@@H](N(Cc2cc(C(F)(F)F)cc(C(F)(F)F)c2)C(=O)OC)C[C@H]1CC [Torcetrapib]	45.1	28.6	68.9	48.8	5.45	93.2	82.7	94.3	89.7	79	84.7	51	> 100	78.3	41.7	84.5	58.4	> 100	50.5	30
